Measured values published in US8057783B2, “Method of injecting liquid agents at acupuncture points to arrive internal organs and method of visualizing arrival of liquid agents” (Seoul National University Industry Foundation, priority 2007, dated 2011).

Assay: Injection of alcian blue solution at the lowest electric resistance point near Jung-Wan, arrival at pancreas observed by stereoscopic microscope
Assay type: in vivo
Settings: hairless mouse, subcutaneous tissue near Jung-Wan, 0.1 μl a minute for 2 to 3 hours
Method: For laboratory animals, the hairless mouse (males, about 6 weeks old) supplied from the JungAng Laboratory Animal Company were used. The laboratory animals were managed in a breeding cage with temperature of 23° C. and 60% relative humidity under 12 hour light/dark cycles and supplied with food and water for ad libitum access.
The hairless mouse living in the above environment was anaesthetized by administering 1.5 g/kg of urethane, and all of the surgical procedures were performed under anesthesia. The hairless mouse under anesthesia were placed on the operating table under the stereoscopic microscope (Olympus SZX12) connected with the computer and the CCD camera.
Jung-Wan was determined at the middle of the umbilicus and the xiphoid process-sternum junction (JungJeong, one of acupuncture points) along the linea alba of the hairless mouse according to “GolDo method”, which is a method of finding acupuncture points by using its unique measuring units. After Jung-Wan was determined, the point having the lowest electric resistance was found within a radius of 2 mm from Jung-Wan by using the electro acupuncture point detector (Hamtech Korea Co., YNS202-S) and determined as the point into which an alcian blue solution would be injected. […]

In the case of alcian blue [alcian blue solution], the “distribution of the visualizing material in internal organs after injection” value is reported as “dispersed into the threadlike structures penetrating out through the surface of the pancreas”.
